Laboratory results taken from US5230998A, “Method for the prescreening of drugs targeted to the V3 hypervariable loop of the HIV-1 envelope glycoprotein gp 120” (priority 1991, dated 1993).

Tests used:
[1] = target: T1, BH 10 peptide (Human immunodeficiency virus type 1 BH10, UniProt P03375); experiment: Attachment of ATA to V3 hypervariable loop peptides of distinct HIV-1 isolates (FIG. 4B); type: binding, HIV-1 BH 10
T1 construct: cut from Env gp160
Experimental: FIG. 4 comprises bar graphs depicting the interaction of aurintricarboxylic acid (ATA) with full length V3 hypervariable loop peptides from gp120 of distinct HIV-1 isolates (clones). FIG. 4A: Inhibitory effects of ATA (50 μg/ml) on the reaction between peptide-coated wells and homologous anti-peptide antisera (diluted 1:1,000). FIG. 4B: attachment of ATA to distinct V3 hypervariable loop peptide-coated wells as determined by double antibody RIA using rabbit antiserum against ATA.
(§1) ATA was also added to a control peptide, (518-542), and to wells coated with gelatin only. After incubation for 4 hours at 20° C., excess ATA was removed, the wells were washed with TS and attached ATA was determined by double-antibody RIA using serial dilutions of the anti-ATA antiserum. Similar tests were carried out with serum from the same rabbit before immunization with the ATA-BSA conjugate; the corresponding results (100-450 cpm) were subtracted from cpm corresponding to RIA results obtained with the anti-ATA antiserum. For additional assays aimed at determining the binding of ATA to synthetic peptides from gp120 and gp41 of HIV-1 BH 10 and to V3 hypervariable loop peptides from 20 additional HIV-1 isolates, anti-ATA antiserum was used at a final dilution of 1:800.

[2] = target: T2, control peptide (518-542) (Human immunodeficiency virus type 1 BH10, UniProt P03375); experiment: Attachment of ATA determined by anti-ATA antibodies (double antibody RIA); type: binding, HIV-1; details: FIG. 2
T2 construct: cut from Env gp160
Experimental: Antibodies to ATA were detected by double antibody RIA using wells coated with an ATA-ovalbumin conjugate. This conjugate was prepared in the same way as described for the ATA-BSA conjugate. Dilution endpoints of anti-ATA antibodies, determined as described by Ritchie, D. G., Nickerson, J. M., and Fuller, G. M. (1983), "Two Simple Programs for the Analysis of Data from Enzyme-linked Immunosorbent Assays (ELISA) on a Programmable Desk-top Calculator," Methods in Enzymology, 92, 577-588) of the two antisera were: 1:2,700 and 1:150,000, respectively. The second antiserum was used for subsequent RIA tests.
as §1

[3] = tested on: HIV-1; experiment: HIV-1 infection marker: viral DNA in ATA-treated cultures; type: cell-based
Source text: The combined effects of AZT and ATA, and other compounds shown to be effective in Table 1, hereinbelow, against HIV-1 are also contemplated by the present invention, since synergistic drug combinations would offer means for alleviating toxicity due to AZT, observed in clinical settings. Contemplated combinations include, for example, AZT+ATA, AZT+chlorin e6; AZT+deuteroporphyrin IX, 2,4(4,2) hydroxyethyvinyl; and AZT+meso-tetra(4-carboxyphenyl)porphine.

[4] = target: gp120 of the same virus subtype expressed in E. coli (HIV-1 M:B_ARV2/SF2, UniProt P03378); experiment: Interaction of ATA with gp120 (non-glycosylated); type: binding, HIV-1 SF2; details: data not shown
Chain of gp120 of the same virus subtype expressed in E. coli (P03378 32-509): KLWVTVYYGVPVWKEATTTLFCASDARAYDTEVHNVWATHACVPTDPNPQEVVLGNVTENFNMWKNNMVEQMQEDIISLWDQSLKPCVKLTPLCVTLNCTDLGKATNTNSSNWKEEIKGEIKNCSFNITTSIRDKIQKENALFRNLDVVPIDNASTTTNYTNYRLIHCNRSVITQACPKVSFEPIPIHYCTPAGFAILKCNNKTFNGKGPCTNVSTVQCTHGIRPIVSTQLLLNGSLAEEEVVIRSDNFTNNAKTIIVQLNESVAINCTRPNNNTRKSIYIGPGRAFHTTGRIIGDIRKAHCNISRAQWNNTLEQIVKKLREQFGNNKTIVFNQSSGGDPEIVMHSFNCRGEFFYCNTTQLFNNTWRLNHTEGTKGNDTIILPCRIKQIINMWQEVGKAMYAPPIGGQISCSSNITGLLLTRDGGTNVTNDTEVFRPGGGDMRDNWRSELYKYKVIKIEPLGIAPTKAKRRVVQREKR

[5] = target: T3, HIV-1 IIIB glycoprotein gp120 V3 hypervariable loop (Human immunodeficiency virus type 1 BH10, UniProt P03375); experiment: Inhibition of the reaction between HIV-1 IIIB gp120 and three distinct antibodies reacting with the V3 hypervariable loop (FIGS. 8-11); type: binding; details: 60 μg/ml, metal complexes versus uncomplexed
T3 construct: b180 also mentions the V3 loop peptide
Experimental: (§2) FIG. 8 is a bar graph depicting the inhibitory effect of chlorine6 (60 μg/ml) and metal chelates thereof on the reaction between HIV-1 IIIB glycoprotein gp120 and three distinct antibodies reacting with the V3 hypervariable loop of this glycoprotein. The antisera used were rabbit antiserum to a synthetic peptide corresponding to the V3 hypervariable loop of HIV-1 clone BH10, serum of a chimpanzee immunized with V3 hypervariable loop peptides of distinct HIV-1 isolates and monoclonal antibodies (McAb NEA 9305) raised against residues (315-329) of the V3 hypervariable loop of HIV-1 BH10 (Neurath et al (1990), Molec. Immunol., 27, 539-549).
FIG. 9 is a bar graph depicting the inhibitory effect of deuteroporphyrin IX,2-vinyl,4-hydroxymethyl (60 μg/ml) and metal chelates thereof on the reaction between HIV-1 IIIB glycoprotein gp120 and three distinct antibodies reacting with the V3 hypervarible loop of this glycoprotein. The antisera used were rabbit antiserum to a synthetic peptide corresponding to the V3 hypervariable loop of HIV-1 clone BH10, serum of a chimpanzee immunized with V3 hypervariable loop peptides of distinct HIV-1 isolates and monoclonal antibodies (McAb NEA 9305) raised against a synthetic peptide corresponding to residues (315-329) of the V3 hypervariable loop of HIV-1 BH10 (Neurath et al (1990), Molec. Immunol 27, 539-549).
as §2, with “FIG. 10” for “FIG. 8”, “of meso-tetra (4-carboxyphenyl)porphine” for “of chlorine6”, “against a synthetic peptide corresponding to” for “against”, “HIV-1 BH10.” for “HIV-1 BH10”
as §2, with “FIG. 11” for “FIG. 8”, “of uroporphyrin III” for “of chlorine6”, “against a synthetic peptide corresponding to” for “against”, “et al,” for “et al”, “Molec. lmmunol.,” for “Molec. Immunol.,”, “27, 539-549)” for “27, 539-549).”
Monoclonal antibodies (McAbs) recognizing the V3 hypervariable loop of HIV-1 BH 10 (McAb 9305 from DuPont, Wilmington, Del.) and an antiserum from a chimpanzee immunized with a mixture of V3 hypervariable loop peptides from 21 distinct HIV1 isolates (Girard, M., Kieny, M-P., Pinter, A., Barre-Sinoussi, F., Nara, P., Kolbe, H., Kusumi, K., Chaput, A., Reinhart, T., Muchmore, E, Ronco, J., Kaczorek, M., Gomard, E, Gluckman, JC., Fultz, P. N. (1991), "Immunization of Chimpanzees Confers Protection Against Challenge with Human Immunodeficiency Virus", Proc. Natl. Acad. Sci. USA, 88, 542-546) were also used for studies on the inhibitory affect of ATA on the reaction between these antibodies and gp120, using ELISA tests. These tests were carried out similarly as RIA, except that sodium merthiolate (1 mg/ml) was added to the buffers instead of NaN3, and goat antimouse IgG antibodies (Boehringer Mannheim Biochemicals, Indianapolis, Ind.) and goat anti-human IgG antibodies (Sigma, St. Louis, Mo.), respectively, each linked to horseradish peroxidase were used as second antibodies at final dilutions of 1:1,000 in phosphate-buffered saline (PBS) containing 10% goat serum and 0.1% Tween 20. […]

| Compound | ATA binding to V3 peptide [1] | binding of ATA to control peptide (anti-ATA antibodies) [2] | viral DNA in treated cultures [3] | interaction of ATA with gp120 [4] | inhibitory activity on the interaction between the V3 hypervariable loop of HIV-1-IIIB and antisera [5] |
| --- | --- | --- | --- | --- | --- |
| O=C(O)C1=CC(=C(c2ccc(O)c(C(=O)O)c2)c2ccc(O)c(C(=O)O)c2)C=CC1=O [substance #122, aurintricarboxylic acid] | bound the highest levels of ATA | not with gelatin or a control peptide (518-542) | almost undetectable | not with gp120 of the same virus subtype expressed in E. coli |  |
| C=Cc1c(C)c2cc3nc(c(CC(=O)O)c4[nH]c(cc5nc(cc1[nH]2)C(C)=C5CC)c(C)c4C(=O)O)[C@@H](CCC(=O)O)[C@@H]3C [substance #149, chlorine e6] |  |  |  |  | considerable inhibitory activity |
